Results from patent USRE50724E1, “4-membered ring carboxamides used as nematicides” (SYNGENTA CROP PROTECTION AG, priority 2013, dated 2026).

system: Heterodera schachtii; assay: Heterodera schachtii (sugar beet cyst nematode), nematicide, contact activity: juvenile paralysis in 16-well assay plates; type: in vivo; conditions: 200 ppm, approx. 500 juveniles per well, 24 hours incubation at 25° C. in darkness, read-out: nematode immobilization compared to the untreated control
Method: Heterodera schachtii (Sugar Beet Cyst Nematode), Nematicide, Contact Activity
The tested application rate of each compound was 200 ppm. All solutions were brought to a concentration of 400 ppm, respectively, as they were subsequently diluted by adding the equivalent amount of water containing juvenile nematodes. After preparation of the suspensions, 1 ml of each suspension and concentration was transferred to 16-well assay plates with a total of three replicates per treatment. Approximately 500 juveniles of Heterodera schachtii were added in 1 ml of water to each well. Nematodes in water served as controls. The plates were placed in a dark box and stored at room temperature. Nematode paralysis was determined after 24 hours incubation at 25° C. in darkness.

Question: Which pest or weed control at 200 ppm does the source give for Cc1ncccc1C(=O)N[C@H]1CC[C@H]1c1ccc(Cl)cc1Cl [Compound 61.7, N-[(1S,2S)-2-(2,4-dichlorophenyl)cyclobutyl]-2-methylpyridine-3-carboxamide] here?
Answer: > 75%

Question: Which pest or weed control at 200 ppm does the source give for O=C(N[C@H]1CC[C@H]1c1ccc(Cl)cc1Cl)c1ccccc1Br [Compound 61.8, 2-bromo-N-[(1S,2S)-2-(2,4-dichlorophenyl)cyclobutyl]benzamide] here?
Answer: > 75%

Question: Which pest or weed control at 200 ppm does the source give for O=C(N[C@H]1CC[C@H]1c1ccc(Cl)cc1)c1c(F)cccc1C(F)(F)F [Compound 61.41, N-[(1S,2S)-2-(4-chlorophenyl)cyclobutyl]-2-fluoro-6-(trifluoromethyl)benzamide] here?
Answer: > 75%

Question: O=C(N[C@H]1CC[C@H]1c1ccc(Cl)cc1Cl)c1ncccc1Br [Compound 61.60, 3-bromo-N-[(1S,2S)-2-(2,4-dichlorophenyl)cyclobutyl]pyridine-2-carboxamide] was tested. Which pest or weed control at 200 ppm did it give?
Answer: > 75%

Question: Which pest or weed control at 200 ppm does the source give for O=C(N[C@H]1CC[C@H]1c1ccc(Cl)cc1Cl)c1ccsc1C(F)(F)F [Compound 61.97, N-[(1S,2S)-2-(2,4-dichlorophenyl)cyclobutyl]-2-(trifluoromethyl)thiophene-3-carboxamide] here?
Answer: > 75%

Question: For O=C(N[C@H]1CC[C@H]1c1ccc(Cl)cc1Cl)c1ncsc1Br [Compound 61.98, 5-bromo-N-[(1S,2S)-2-(2,4-dichlorophenyl)cyclobutyl]-1,3-thiazole-4-carboxamide], which pest or weed control at 200 ppm is on record?
Answer: > 75%

Question: Which pest or weed control at 200 ppm does the source give for Cc1cccnc1C(=O)N[C@H]1CC[C@H]1c1ccc(F)cc1F [Compound 61.108, N-[(1S,2S)-2-(2,4-difluorophenyl)cyclobutyl]-3-methylpyridine-2-carboxamide] here?
Answer: > 75%

Question: With Cc1ccccc1C(=O)N[C@H]1CC[C@H]1c1ccc(F)cc1F [Compound 61.109, N-[(1S,2S)-2-(2,4-difluorophenyl)cyclobutyl]-2-methylbenzamide] as the compound, how does the pest or weed control at 200 ppm read?
Answer: > 75%

Question: With O=C(N[C@H]1CC[C@H]1c1ccc(F)cc1F)c1ncccn1 [Compound 61.110, N-[(1S,2S)-2-(2,4-difluorophenyl)cyclobutyl]pyrimidine-2-carboxamide] as the compound, how does the pest or weed control at 200 ppm read?
Answer: > 75%

Question: Which pest or weed control at 200 ppm does the source give for O=C(N[C@H]1CC[C@H]1c1ccc(F)cc1F)c1ccccc1Cl [Compound 61.113, 2-chloro-N-[(1S,2S)-2-(2,4-difluorophenyl)cyclobutyl]benzamide] here?
Answer: > 75%

Question: How did the pest or weed control at 200 ppm turn out when O=C(N[C@H]1CC[C@H]1c1ccc(F)cc1F)c1cnccc1C(F)(F)F [Compound 61.114, N-[(1S,2S)-2-(2,4-difluorophenyl)cyclobutyl]-4-(trifluoromethyl)pyridine-3-carboxamide] was run?
Answer: > 75%

Question: Which pest or weed control at 200 ppm does the source give for O=C(N[C@H]1CC[C@H]1c1ccc(F)cc1F)c1ccccc1Br [Compound 61.116, 2-bromo-N-[(1S,2S)-2-(2,4-difluorophenyl)cyclobutyl]benzamide] here?
Answer: > 75%

Question: How did the pest or weed control at 200 ppm turn out when O=C(N[C@H]1CC[C@H]1c1ccc(F)cc1F)c1c(F)cccc1Cl [Compound 61.117, 2-chloro-N-[(1S,2S)-2-(2,4-difluorophenyl)cyclobutyl]-6-fluorobenzamide] was run?
Answer: > 75%

Question: Cc1cccc(F)c1C(=O)N[C@H]1CC[C@H]1c1ccc(F)cc1F [Compound 61.118, N-[(1S,2S)-2-(2,4-difluorophenyl)cyclobutyl]-2-fluoro-6-methylbenzamide] was tested. Which pest or weed control at 200 ppm did it give?
Answer: > 75%

Question: For Cc1nccnc1C(=O)N[C@H]1CC[C@H]1c1ccc(F)cc1F [Compound 61.119, N-[(1S,2S)-2-(2,4-difluorophenyl)cyclobutyl]-3-methylpyrazine-2-carboxamide], which pest or weed control at 200 ppm is on record?
Answer: > 75%

Question: How did the pest or weed control at 200 ppm turn out when O=C(N[C@H]1CC[C@H]1c1ccc(F)cc1F)c1ccccc1F [Compound 61.121, N-[(1S,2S)-2-(2,4-difluorophenyl)cyclobutyl]-2-fluorobenzamide] was run?
Answer: > 75%

Question: Which pest or weed control at 200 ppm does the source give for O=C(N[C@H]1CC[C@H]1c1ccc(F)cc1F)c1cncnc1C(F)(F)F [Compound 61.122, N-[(1S,2S)-2-(2,4-difluorophenyl)cyclobutyl]-4-(trifluoromethyl)pyrimidine-5-carboxamide] here?
Answer: > 75%

Question: How did the pest or weed control at 200 ppm turn out when O=C(N[C@H]1CC[C@H]1c1ccc(F)cc1F)c1ncccc1F [Compound 61.124, N-[(1S,2S)-2-(2,4-difluorophenyl)cyclobutyl]-3-fluoropyridine-2-carboxamide] was run?
Answer: > 75%

Question: How did the pest or weed control at 200 ppm turn out when O=C(N[C@H]1CC[C@H]1c1ccc(F)cc1F)c1ccccc1I [Compound 61.125, N-[(1S,2S)-2-(2,4-difluorophenyl)cyclobutyl]-2-iodobenzamide] was run?
Answer: > 75%

Question: Cn1cccc1C(=O)N[C@H]1CC[C@H]1c1ccc(F)cc1F [Compound 61.126, N-[(1S,2S)-2-(2,4-difluorophenyl)cyclobutyl]-1-methylpyrrole-2-carboxamide] was tested. Which pest or weed control at 200 ppm did it give?
Answer: > 75%

Question: With Cn1cc(C(=O)N[C@H]2CC[C@H]2c2ccc(F)cc2F)c(C(F)F)n1 [Compound 61.127, 3-(difluoromethyl)-N-[(1S,2S)-2-(2,4-difluorophenyl)cyclobutyl]-1-methylpyrazole-4-carboxamide] as the compound, how does the pest or weed control at 200 ppm read?
Answer: > 75%

Question: For O=C(N[C@H]1CC[C@H]1c1ccc(F)cc1F)c1sccc1Cl [Compound 61.129, 3-chloro-N-[(1S,2S)-2-(2,4-difluorophenyl)cyclobutyl]thiophene-2-carboxamide], which pest or weed control at 200 ppm is on record?
Answer: > 75%

Question: For O=C(N[C@H]1CC[C@H]1c1ccc(F)cc1F)c1c(F)cccc1C(F)(F)F [Compound 61.131, N-[(1S,2S)-2-(2,4-difluorophenyl)cyclobutyl]-2-fluoro-6-(trifluoromethyl)benzamide], which pest or weed control at 200 ppm is on record?
Answer: > 75%

Question: For O=C(N[C@H]1CC[C@H]1c1ccc(F)cc1F)c1cccnc1Cl [Compound 61.133, 2-chloro-N-[(1S,2S)-2-(2,4-difluorophenyl)cyclobutyl]pyridine-3-carboxamide], which pest or weed control at 200 ppm is on record?
Answer: > 75%

Question: Which pest or weed control at 200 ppm does the source give for O=C(N[C@H]1CC[C@H]1c1ccc(F)cc1F)c1ncsc1Br [Compound 61.136, 5-bromo-N-[(1S,2S)-2-(2,4-difluorophenyl)cyclobutyl]-1,3-thiazole-4-carboxamide] here?
Answer: > 75%

Question: O=C(N[C@H]1CC[C@H]1c1ccc(F)cc1F)c1ccsc1C(F)(F)F [Compound 61.137, N-[(1S,2S)-2-(2,4-difluorophenyl)cyclobutyl]-2-(trifluoromethyl)thiophene-3-carboxamide] was tested. Which pest or weed control at 200 ppm did it give?
Answer: > 75%

Question: For Cc1ncccc1C(=O)N[C@H]1CC[C@H]1c1ccc(F)cc1F [Compound 61.140, N-[(1S,2S)-2-(2,4-difluorophenyl)cyclobutyl]-2-methylpyridine-3-carboxamide], which pest or weed control at 200 ppm is on record?
Answer: > 75%

Question: O=C(N[C@H]1CC[C@H]1c1ccc(F)cc1F)c1ncccc1Cl [Compound 61.141, 3-chloro-N-[(1S,2S)-2-(2,4-difluorophenyl)cyclobutyl]pyridine-2-carboxamide] was tested. Which pest or weed control at 200 ppm did it give?
Answer: > 75%

Question: How did the pest or weed control at 200 ppm turn out when O=C(N[C@H]1CC[C@H]1c1ccc(F)cc1F)c1sccc1Br [Compound 61.143, 3-bromo-N-[(1S,2S)-2-(2,4-difluorophenyl)cyclobutyl]thiophene-2-carboxamide] was run?
Answer: > 75%

Question: How did the pest or weed control at 200 ppm turn out when Cc1occc1C(=O)N[C@H]1CC[C@H]1c1ccc(F)cc1F [Compound 61.144, N-[(1S,2S)-2-(2,4-difluorophenyl)cyclobutyl]-2-methylfuran-3-carboxamide] was run?
Answer: > 75%

Question: How did the pest or weed control at 200 ppm turn out when O=C(N[C@H]1CC[C@H]1c1ccc(F)cc1F)c1ncccc1Br [Compound 61.146, 3-bromo-N-[(1S,2S)-2-(2,4-difluorophenyl)cyclobutyl]pyridine-2-carboxamide] was run?
Answer: > 75%

Question: O=C(N[C@H]1CC[C@H]1c1ccc(F)cc1F)c1ncccc1C(F)(F)F [Compound 61.151, N-[(1S,2S)-2-(2,4-difluorophenyl)cyclobutyl]-3-(trifluoromethyl)pyridine-2-carboxamide] was tested. Which pest or weed control at 200 ppm did it give?
Answer: > 75%

Question: O=C(N[C@H]1CC[C@H]1c1ccc(Cl)cc1Cl)c1nccnc1Br [Compound 61.162, 3-bromo-N-[(1S,2S)-2-(2,4-dichlorophenyl)cyclobutyl]pyrazine-2-carboxamide] was tested. Which pest or weed control at 200 ppm did it give?
Answer: > 75%

Question: O=C(N[C@H]1CC[C@H]1c1ccc(Cl)cc1Cl)c1nnccc1C(F)(F)F [Compound 61.167, N-[(1S,2S)-2-(2,4-dichlorophenyl)cyclobutyl]-4-(trifluoromethyl)pyridazine-3-carboxamide] was tested. Which pest or weed control at 200 ppm did it give?
Answer: > 75%

Question: With O=C(N[C@H]1CC[C@H]1c1ccc(Cl)cc1Cl)c1ccoc1Br [Compound 61.173, 2-bromo-N-[(1S,2S)-2-(2,4-dichlorophenyl)cyclobutyl]furan-3-carboxamide] as the compound, how does the pest or weed control at 200 ppm read?
Answer: > 75%

Question: With O=C(N[C@H]1CC[C@H]1c1ccc(Cl)cc1Cl)c1ccoc1C(F)(F)F [Compound 61.174, N-[(1S,2S)-2-(2,4-dichlorophenyl)cyclobutyl]-2-(trifluoromethyl)furan-3-carboxamide] as the compound, how does the pest or weed control at 200 ppm read?
Answer: > 75%

system: Meloidogyne spp.; assay: Meloidogyne spp. (root-knot nematode), nematicide, contact activity, preventive: cucumber seed in filter paper pouch; type: in vivo; conditions: 288 h, cucumber cv. Toshka seed in pouch, 3000 eggs, twelve days, read-out: reduction of galling compared to the untreated control
Method: Meloidogyne spp. (Root-Knot Nematode) Nematicide, Contact Activity, Preventive. Filter papers (9 cm×4.5 cm) with a small pocket were placed into plastic pouches (12 cm×6 cm). One cucumber cv. Toshka seed was placed in the centre of the filter paper pocket of all the pouches needed for a test. The cucumber seeds in the pouches were treated with test solutions at 200 ppm by pipetting the solution directly over the cucumber seed in the filter paper pocket in the pouch. Prior to application, the compound solution was prepared at twice the concentration required and the egg suspension is prepared with FORL nutrient solution with 3000 eggs/0.5 ml. After applying all the treatments, 3000 eggs (in 0.5 ml of FORL nutrient solution) were pipetted into the pouches. The pouches were incubated in a moist chamber for twelve days and watered regularly to maintain good filter paper moisture essential for the growing cucumber root system. After this period, the filter paper containing the germinated cucumber seedling was removed from the plastic pouch to assess the number of galls caused by Meloidogyne spp. per root system. Phytotoxicity was measured as a reduction of growth of the emerged cucumber seedling in comparison to the control.

Question: How did the pest or weed control at 200 ppm turn out when Cc1ncccc1C(=O)N[C@H]1CC[C@H]1c1ccc(Cl)cc1Cl [Compound 61.7, N-[(1S,2S)-2-(2,4-dichlorophenyl)cyclobutyl]-2-methylpyridine-3-carboxamide] was run?
Answer: > 80%

Question: With O=C(N[C@H]1CC[C@H]1c1ccc(Cl)cc1Cl)c1ccccc1Br [Compound 61.8, 2-bromo-N-[(1S,2S)-2-(2,4-dichlorophenyl)cyclobutyl]benzamide] as the compound, how does the pest or weed control at 200 ppm read?
Answer: > 80%

Question: How did the pest or weed control at 200 ppm turn out when O=C(N[C@H]1CC[C@H]1c1ccc(Cl)cc1)c1c(F)cccc1C(F)(F)F [Compound 61.41, N-[(1S,2S)-2-(4-chlorophenyl)cyclobutyl]-2-fluoro-6-(trifluoromethyl)benzamide] was run?
Answer: > 80%

Question: Which pest or weed control at 200 ppm does the source give for O=C(N[C@H]1CC[C@H]1c1ccc(Cl)cc1Cl)c1ncccc1Br [Compound 61.60, 3-bromo-N-[(1S,2S)-2-(2,4-dichlorophenyl)cyclobutyl]pyridine-2-carboxamide] here?
Answer: > 80%
